Conditions: Liquid, Vibrating tube method

CCCCCCC [heptane]
mass density [kg/m3]
Conditions | 298.15 K | 313.15 K | 333.15 K | 353.15 K | 373.15 K | 393.15 K
100 kPa | 679.5 | 666.6 | 648.9 | 631.2 | – | –
1000 kPa | 680.4 | 667.6 | 650 | 632.1 | 613.3 | 593.5
5000 kPa | 684.2 | 671.8 | 655 | 637.8 | 620.1 | 601.7
10000 kPa | 688.6 | 676.7 | 660.6 | 644.3 | 627.7 | 610.6
15000 kPa | 692.8 | 681.3 | 665.8 | 650.3 | 634.5 | 618.4
20000 kPa | 696.7 | 685.6 | 670.6 | 655.7 | 640.7 | 625.4
25000 kPa | 700.4 | 689.5 | 675.1 | 660.8 | 646.3 | 631.7
30000 kPa | 704 | 693.5 | 679.4 | 665.5 | 651.6 | 637.5
35000 kPa | 707.4 | 697.1 | 683.4 | 670 | 656.5 | 643
40000 kPa | 710.7 | 700.5 | 687.3 | 674.1 | 661.1 | 648
45000 kPa | 713.8 | 703.9 | 690.9 | 678.1 | 665.5 | 652.8
50000 kPa | 716.8 | 707.2 | 694.4 | 682 | 669.6 | 657.2
55000 kPa | 719.7 | 710.3 | 697.7 | 685.5 | 673.5 | 661.5
60000 kPa | 722.5 | 713.3 | 701 | 689.1 | 677.3 | 665.5
65000 kPa | 725.2 | 716.1 | 704.1 | 692.4 | 680.8 | 669.3
70000 kPa | 727.9 | 718.9 | 707.1 | 695.7 | 684.3 | 673.1
80000 kPa | 732.9 | 724.2 | 712.8 | 701.7 | 690.8 | 680.1
90000 kPa | 737.7 | 729.3 | 718.2 | 707.5 | 696.9 | 686.5
100000 kPa | 742.3 | 734 | 723.2 | 712.8 | 702.6 | 692.5
110000 kPa | 746.6 | 738.6 | 728.1 | 717.9 | 708 | 698.2
120000 kPa | 750.7 | 742.8 | 732.6 | 722.7 | 713 | 703.4
130000 kPa | 754.6 | 747 | 737 | 727.3 | 717.9 | 708.5
140000 kPa | 758.4 | 751.1 | 741.1 | 731.6 | 722.3 | 713.4

CCCCCCCO [heptan-1-ol]
mass density [kg/m3]
Conditions | 298.15 K | 313.15 K | 333.15 K | 353.15 K | 373.15 K | 393.15 K
100 kPa | 818.7 | 808 | 793.3 | 778.1 | 761.9 | 744.9
1000 kPa | 819.3 | 808.6 | 794 | 778.8 | 762.8 | 745.8
5000 kPa | 821.9 | 811.4 | 797.1 | 782.3 | 766.6 | 750.2
10000 kPa | 824.9 | 814.7 | 800.7 | 786.3 | 771.1 | 755.3
15000 kPa | 828 | 817.9 | 804.3 | 790.2 | 775.5 | 760.1
20000 kPa | 830.8 | 821 | 807.7 | 793.9 | 779.5 | 764.6
25000 kPa | 833.5 | 823.8 | 810.8 | 797.3 | 783.4 | 768.8
30000 kPa | 836.3 | 826.8 | 813.9 | 800.7 | 787.1 | 772.9
35000 kPa | 838.8 | 829.5 | 816.9 | 804 | 790.6 | 776.8
40000 kPa | 841.3 | 832.1 | 819.8 | 807.1 | 794 | 780.4
45000 kPa | 843.8 | 834.7 | 822.4 | 810 | 797.2 | 783.9
50000 kPa | 846.2 | 837.2 | 825.2 | 813 | 800.3 | 787.3
55000 kPa | 848.5 | 839.7 | 827.8 | 815.8 | 803.4 | 790.7
60000 kPa | 850.8 | 842.1 | 830.3 | 818.6 | 806.3 | 793.8
65000 kPa | 853 | 844.4 | 832.9 | 821.2 | 809.2 | 796.8
70000 kPa | 855.2 | 846.7 | 835.3 | 823.8 | 811.9 | 799.8
80000 kPa | 859.4 | 851.1 | 839.9 | 828.7 | 817.2 | 805.5
90000 kPa | 863.5 | 855.3 | 844.5 | 833.5 | 822.3 | 810.9
100000 kPa | 867.3 | 859.3 | 848.7 | 837.9 | 827 | 815.9
110000 kPa | 871.1 | 863.2 | 852.8 | 842.3 | 831.6 | 820.8
120000 kPa | 874.6 | 867 | 856.8 | 846.4 | 835.9 | 825.3
130000 kPa | 878.1 | 870.6 | 860.5 | 850.3 | 840.2 | 829.8
140000 kPa | 881.5 | 874.2 | 864.3 | 854.3 | 844.1 | 834

Reference: the NIST ThermoML archive (doi:10.1016/j.jct.2013.05.051)
